# Positions of bridges follow the written chain, without caps; N, C: chain ends. No end group written: not given here. *: point of attachment. DOTA = O=C(O)CN1CCN(CC(=O)O)CCN(CC(=O)*)CCN(CC(=O)O)CC1
# Columns and labels:
# hyphae of Aspergillus = conditions: Lionakis et al. 2005; cited from earlier work
# hyphae of Rhizopus = conditions: Lionakis et al. 2005; cited from earlier work
# [1] = tested on: acute pulmonary aspergillosis; conditions: i.v. approx. 80 μCi per mouse
# Description: FIG. 2 illustrates gamma scintography of mice injected with the ^111In-labeled peptide of FIG. 1. […] Arrows indicate radiotracer in the lung.
# Gamma scintography was performed at 30 and 120 minutes after injection. […] Experiments were performed 1 to 2 days after infection. The same mouse is shown for each test type at 30 and 120 minutes. Arrows in FIG. 2 indicate the accumulated radiotracer. Radiotracer accumulation in the lungs of the control mouse was not visible at 120 minutes after injection. Increased radiotracer could be seen as little as 5 minutes after injection.
# Aspergillus = assay: autoradiography and GMS histology of excised lung slices; type: in vivo, mice
# Description: FIG. 5B illustrates autoradiography of the lungs of mice injected with the ^68Ga-labeled peptide of FIG. 4.
# FIG. 6 illustrates histology and autoradiography of excised lung tissue from a mouse injected with Ga-68-labeled peptide of FIG. 4. The mouse had acute pulmonary aspergillosis.
# Lungs were removed from the mice after the 90 minute imaging session and snap frozen, then cut into 20 μm slices. These slices were air-dried and exposed to a phosphors screen. The screen was exposed for 10 minutes.
# To confirm that tissue labeled with the imaging agent was actually infected with Aspergillus, histology of lung tissue labeled by the imaging agent in an infected mouse was performed. The corresponding gamma scintogram and histology data are show in FIG. 6. […] Note the black-stained organisms correlated with distribution of radioactivity in autoradiography (lower left image) of excised lung tissue from a mouse injected with Ga-68-labeled peptide of FIG. 4.
# [2] = tested on: acute pulmonary aspergillosis; assay: μ-PET imaging of mice with acute pulmonary aspergillosis and normal mice; type: in vivo; conditions: μ-PET at 30 and 90 minutes, i.v. approx. 200 μCi per mouse, not seen in normal mice
# Description: FIG. 5A illustrates μ-PET images of mice injected with the ^68Ga-labeled peptide of FIG. 4. […] Arrows indicate accumulated imaging agent.
# Mice weighing approximately 20 g each were injected intravenously with the imaging agent of FIG. 4 to provide radioisotope at a level of approximately 200 μCi per mouse. μ-PET imaging was performed at 30 and 90 minutes after injection. Control mice had no fungal infection, while infected mice had acute pulmonary aspergillosis. μ-PET images of normal and infected mice are shown in FIG. 5A. Arrows in FIG. 5A indicate the accumulated radiotracer.
substance,measurement,setting,value
c(CGGRLGPFC) (disulfide 1-9 (inferred)),binding in vitro to the hyphae of Aspergillus,hyphae of Aspergillus,bind in vitro
same,binding in vitro to the hyphae of Rhizopus,hyphae of Rhizopus,bind in vitro
^111In-DTPA-Benzyl-NH-Succinic Acid-CGGRLGPFC [imaging agent of FIG. 1],radiotracer accumulation in the lungs of the control mouse,"[1]; control mouse without fungal infection, 120 minutes after injection",not visible
same,time after injection at which increased radiotracer could be seen,[1]; gamma scintography,5 min
c(CWGHSRDEC) (disulfide 1-9 (inferred)),binding in vitro to the hyphae of Aspergillus,hyphae of Aspergillus,bind in vitro
same,binding in vitro to the hyphae of Rhizopus,hyphae of Rhizopus,bind in vitro
"^68Ga-DOTA-CGGRLGPFC ({DOTA}-CGGRLGPFC; not fully specified (bridges); also: 68Ga chelated by DOTA, cyclic, type of ring bond not given here) [imaging agent of FIG. 4]",radioactivity in lung slices of the infected mouse,"Aspergillus; autoradiography of 20 μm slices, lungs removed after the 90 minute imaging session, infected mouse",Heterogeneous distribution of radioactivity
same,radioactivity in lung slices of the normal mouse,"Aspergillus; autoradiography of 20 μm slices, lungs removed after the 90 minute imaging session, normal mouse",Little radioactivity
same,relation of GMS-stained Aspergillus organisms to distribution of radioactivity in autoradiography,"Aspergillus; excised lung tissue of an infected mouse, FIG. 6",correlated
same,radiotracer accumulation in the lungs of infected mice,[2],can be clearly seen
